Experimental data as given in PubChem BioAssay AID1963868 (Molecular Pharmacology Branch, DTP, NCI, 2024).
pIC50: −log10 of the molar value.

Test system: KRAS PDC tumor spheroids (HUVEC+MSC), viability
Test: Anticancer human tumor 254851-301-R-J1-PDC patient-derived colon carcinoma cell line growth inhibition [KRAS2]
Conditions: for pIC50: curve of first compound; for viability, T/C: stronger effect = lower value; active = viability on the fitted dose curve at most 10% of control; inactive = the rest
Text: Multicellular complex tumor spheroid response to RAS pathway inhibitors in combination with a targeted agents in patient-derived cell lines with oncogenic KRAS variants from multiple cancer types
A high-throughput screen of multi-cell type tumor spheroids was designed to identify active combinations of targeted small molecules and KRAS pathway inhibitors. Complex spheroids include a stromal component modeled by human endothelial cells (HUVEC) and fibroblasts modeled by human mesenchymal stem cells (MSCs). The concentration ranges selected for each drug and investigational agent were based upon clinically achievable concentrations if the clinical Cmax of the agent was known.
Compounds. The drugs and investigational agents: BI-3406 (NSC825286), BAY-293 (NSC824723), batoprotafib (TNO155; NSC825523), sotorasib (AMG 510; NSC818433), MRTX1257 (NSC819558), elimusertib (BAY 1895344; NSC800525), molibresib (GSK525762; NSC774829), temuterkib (LY3214996; NSC803410), venetoclax (NSC766270), alisertib (NSC759677), olaparib (NSC753686), talazoparib (NSC767125), erdafitinib (NSC781556), ipatasertib (NSC767898), cabozantinib (NSC761068), nintedanib (NSC756659), abemaciclib (NSC768073), docetaxel (NSC628503), trametinib (NSC758246), and sapanisertib (NSC764658) were obtained from the National Cancer Institute (NCI) Developmental Therapeutics Program Chemical Repository. The FDA-approved anticancer drug set is available from the Developmental Therapeutics Program. […] The stock solutions were prepared in dimethyl sulfoxide (DMSO, Sigma-Aldrich, St. Louis, MO, cat. D2650) at 800-fold the tested concentration and stored at -70 degrees C prior to their use. All drugs and investigational agents were tested over a range starting from a high concentration at or near the clinical Cmax and decreasing in half-log increments. If the clinical Cmax for an agent had not been determined, the highest concentration tested was 10 microM.
Cell Culture. All cells were maintained in an incubator at 37 degrees C and 5% CO2 with 95% humidity. The PDC lines were cultured according to standard operating procedures established by the NCI PDMR (https://pdmr.cancer.gov/sops/default.htm). Briefly, all PDCs were thawed and cultured in Matrigel-coated flasks prepared with a working solution of 1X Ham's F-12 nutrient mix, without supplementation (Invitrogen, Waltham, MA, cat. 11765054), 100 U/mL penicillin-streptomycin (Invitrogen, cat. 15140122), and 2.5% Matrigel (Corning Inc., Corning, NY, cat. 354248) for the first three passages. All PDCs were cultured in complete DMEM/F-12 media containing advanced DMEM/F-12 (Invitrogen, cat. 12634028), 4.9% defined fetal bovine serum, heat inactivated (HyClone Laboratories Inc., Logan, UT, cat. SH30070.03HI), 389 ng/mL hydrocortisone (Sigma-Aldrich, cat. H4001), 9.7 ng/mL human EGF recombinant protein (Invitrogen, cat. PHG0313), 23.4 microg/mL adenine (Sigma-Aldrich, cat. A2786), 97.3 U/mL penicillin-streptomycin (Invitrogen, cat. 15140122), 1.9 mM L-glutamine (Invitrogen, cat. 25030081), and 9.7 microM Y-27632 dihydrochloride (Tocris Bioscience, Bristol, United Kingdom, cat. 1254). The PDCs were cultured in complete DMEM/F12 media without 9.7 microM Y-27632 dihydrochloride for at least two passages prior to the screen. The established cell line HOP-62 was cultured in RPMI 1640 medium, HEPES (Invitrogen, cat. 22400105) with 10% defined fetal bovine serum (HyClone Laboratories Inc., cat. SH30070.03) and 2 mM L-glutamine (Invitrogen, cat. 25030081). The pooled donor HUVEC were cultured in endothelial cell growth medium 2 (PromoCell, Heidelberg, Germany, cat. C-22011) and the hMSC were cultured in mesenchymal stem cell growth medium 2 (PromoCell, cat. C-28009). For all experiments, HUVEC and hMSC were used at passages </=5, while the malignant cell lines were used at passages </=15. […]

[1] = second compound 0.1 µM, first compound 0.0316 µM
[2] = second compound 0.1 µM, first compound 0.1 µM
[3] = second compound 0.1 µM, first compound 0.316 µM
[4] = second compound 0.1 µM, first compound 1 µM
[5] = second compound 0.1 µM, first compound 3.16 µM
[6] = second compound 0.1 µM, first compound 10 µM
[7] = second compound 0.316 µM, first compound 0.0316 µM
[8] = second compound 0.316 µM, first compound 0.1 µM
[9] = second compound 0.316 µM, first compound 0.316 µM
[10] = second compound 0.316 µM, first compound 1 µM
[11] = second compound 0.316 µM, first compound 3.16 µM
[12] = second compound 0.316 µM, first compound 10 µM
[13] = second compound 1 µM, first compound 0.0316 µM
[14] = second compound 1 µM, first compound 0.1 µM
[15] = second compound 1 µM, first compound 0.316 µM
[16] = second compound 1 µM, first compound 1 µM
[17] = second compound 1 µM, first compound 3.16 µM
[18] = second compound 1 µM, first compound 10 µM
[19] = second compound 3.16 µM, first compound 0.0316 µM
[20] = second compound 3.16 µM, first compound 0.1 µM
[21] = second compound 3.16 µM, first compound 0.316 µM
[22] = second compound 3.16 µM, first compound 1 µM
[23] = second compound 3.16 µM, first compound 3.16 µM
[24] = second compound 3.16 µM, first compound 10 µM
[25] = second compound 10 µM, first compound 0.0316 µM
[26] = second compound 10 µM, first compound 0.1 µM
[27] = second compound 10 µM, first compound 0.316 µM
[28] = second compound 10 µM, first compound 1 µM
[29] = second compound 10 µM, first compound 3.16 µM
[30] = second compound 10 µM, first compound 10 µM
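Note: spheroids exposed to compounds for seven days before readout.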
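Throughout, for viability, T/C: 100% = DMSO vehicle control luminescence of the spheroids.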

CC1OCC2(CCN(c3cnc(Sc4ccnc(N)c4Cl)c(N)n3)CC2)C1N (stereo not given) + C=CC(=O)N1CCN(c2nc(=O)n(-c3c(C)ccnc3C(C)C)c3nc(-c4c(O)cccc4F)c(F)cc23)C(C)C1
inactive: viability, T/C [1] 95% | viability, T/C [2] 91% | viability, T/C [3] 81.6% | viability, T/C [4] 60.2% | viability, T/C [5] 67.2% | viability, T/C [6] 61.9% | viability, T/C [7] 78% | viability, T/C [8] 99.2% | viability, T/C [9] 75.4% | viability, T/C [10] 71.4% | viability, T/C [11] 60.5% | viability, T/C [12] 68.7% | viability, T/C [13] 94.6% | viability, T/C [14] 84.7% | viability, T/C [15] 76.3% | viability, T/C [16] 74.1% | viability, T/C [17] 67.8% | viability, T/C [18] 67.5% | viability, T/C [19] 92.6% | viability, T/C [20] 71.1% | viability, T/C [21] 81.5% | viability, T/C [22] 63.9% | viability, T/C [23] 72.2% | viability, T/C [24] 65.6% | viability, T/C [25] 80.7% | viability, T/C [26] 70.8% | viability, T/C [27] 58.9% | viability, T/C [28] 55.6% | viability, T/C [29] 56% | viability, T/C [30] 66.3%
< 5.00: pIC50 (second compound 0.1 µM) | pIC50 (second compound 0.316 µM) | pIC50 (second compound 1 µM) | pIC50 (second compound 3.16 µM) | pIC50 (second compound 10 µM)

Cn1nccc1Nc1nccc(-c2cc3c(s2)C(C)(C)N(CCN2CCOCC2)C3=O)n1 + C=CC(=O)N1CCN(c2nc(=O)n(-c3c(C)ccnc3C(C)C)c3nc(-c4c(O)cccc4F)c(F)cc23)C(C)C1
5.72: pIC50 (second compound 3.16 µM)
5.56: pIC50 (second compound 0.1 µM)
5.43: pIC50 (second compound 0.316 µM)
5.51: pIC50 (second compound 10 µM)
active: viability, T/C [6] 4.13% | viability, T/C [12] 4.04% | viability, T/C [18] 5.08% | viability, T/C [24] 3.74% | viability, T/C [30] 4.35%
inactive: viability, T/C [1] 87.5% | viability, T/C [2] 94.5% | viability, T/C [3] 94.5% | viability, T/C [4] 96.8% | viability, T/C [5] 44.1% | viability, T/C [7] 102% | viability, T/C [8] 92.2% | viability, T/C [9] 102% | viability, T/C [10] 88% | viability, T/C [11] 58.2% | viability, T/C [13] 95.5% | viability, T/C [14] 91.2% | viability, T/C [15] 91.9% | viability, T/C [16] 79.5% | viability, T/C [17] 43.5% | viability, T/C [19] 73.7% | viability, T/C [20] 82.7% | viability, T/C [21] 78.6% | viability, T/C [22] 77.6% | viability, T/C [23] 28.6% | viability, T/C [25] 97.1% | viability, T/C [26] 97.1% | viability, T/C [27] 79.7% | viability, T/C [28] 74.9% | viability, T/C [29] 51.5%
5.59: pIC50 (second compound 1 µM)

CC(=O)OC12COC1CC(O)C1(C)C(=O)C(O)C3=C(C)C(OC(=O)C(O)C(NC(=O)OC(C)(C)C)c4ccccc4)CC(O)(C(OC(=O)c4ccccc4)C21)C3(C)C (stereo not given) + C=CC(=O)N1CCN(c2nc(OCC3CCCN3C)nc3c2CCN(c2cccc4cccc(C)c24)C3)CC1CC#N
6.69: pIC50 (second compound 0.0316 µM) | pIC50 (second compound 3.16 µM)
6.85: pIC50 (second compound 1 µM)
inactive: viability, T/C (second compound 0.0316 µM, first compound 0.01 µM) 102% | viability, T/C (second compound 0.0316 µM, first compound 0.0316 µM) 95.9% | viability, T/C (second compound 0.0316 µM, first compound 0.1 µM) 69.3% | viability, T/C (second compound 0.0316 µM, first compound 0.316 µM) 38.4% | viability, T/C (second compound 0.0316 µM, first compound 1 µM) 29% | viability, T/C (second compound 0.0316 µM, first compound 3.16 µM) 26.1% | viability, T/C (second compound 0.1 µM, first compound 0.01 µM) 99.1% | viability, T/C [1] 91.2% | viability, T/C [2] 61.4% | viability, T/C [3] 43% | viability, T/C [4] 27.3% | viability, T/C [5] 25.6% | viability, T/C (second compound 0.316 µM, first compound 0.01 µM) 98.1% | viability, T/C [7] 88% | viability, T/C [8] 60.8% | viability, T/C [9] 35.4% | viability, T/C [10] 26.5% | viability, T/C [11] 24.3% | viability, T/C (second compound 1 µM, first compound 0.01 µM) 93% | viability, T/C [13] 94.5% | viability, T/C [14] 56.2% | viability, T/C [15] 34% | viability, T/C [16] 24.4% | viability, T/C [17] 22.9% | viability, T/C (second compound 3.16 µM, first compound 0.01 µM) 94.3% | viability, T/C [19] 86.7% | viability, T/C [20] 69.1% | viability, T/C [21] 38.5% | viability, T/C [22] 24.2% | viability, T/C [23] 23.7%
6.79: pIC50 (second compound 0.316 µM)
6.70: pIC50 (second compound 0.1 µM)
